Experiments:
[1] = biological target: T1, TGF-beta kinase ALK5 (GST-ALK5) (Homo sapiens, UniProt P36897); assay: Test for the inhibition of ALK-5 (flashplate kinase assay); format: biochemical; details: enzymatic; GST-ALK5, GST-SMAD2 substrate; read-out: IC50 [nM] [TGF-beta] enzym. ALK5
T1 sequence (P36897 34-503): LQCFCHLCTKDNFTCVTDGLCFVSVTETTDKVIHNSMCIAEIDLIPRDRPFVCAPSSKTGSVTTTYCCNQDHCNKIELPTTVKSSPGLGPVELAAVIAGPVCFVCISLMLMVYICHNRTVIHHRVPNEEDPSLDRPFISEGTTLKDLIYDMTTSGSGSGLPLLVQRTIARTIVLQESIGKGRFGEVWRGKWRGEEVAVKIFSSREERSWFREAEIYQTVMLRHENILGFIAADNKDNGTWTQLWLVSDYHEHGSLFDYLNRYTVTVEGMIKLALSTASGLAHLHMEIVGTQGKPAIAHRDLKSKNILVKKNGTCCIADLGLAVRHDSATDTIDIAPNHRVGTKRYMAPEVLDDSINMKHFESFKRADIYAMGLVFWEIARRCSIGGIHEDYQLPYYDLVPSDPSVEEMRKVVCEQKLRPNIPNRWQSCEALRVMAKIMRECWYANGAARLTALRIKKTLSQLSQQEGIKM
Method: Test for the Inhibition of ALK-5
The experimental batches are carried out in a flashplate system with 384 wells/microtitre plate.
In each case, 31.2 nM of GST-ALK5, 439 nM of GST-SMAD2 and 3 mM of ATP (with 0.3 μCi of 33P-ATP/well) in a total volume of 35 μl of buffer (20 mM HEPES, 10 mM MgCl2, 5 mM MnCl2, 1 mM DTT, 0.1% of BSA, pH 7.4) per well are incubated without or with test substance at 5 to 10 different concentrations at 30 C for 45 min. The reaction is stopped using 25 μl of 200 mM EDTA solution and filtered off with suction after 30 min at room temperature.
The wells are washed 3 times with 100 μl of 0.9% aqueous NaCl solution, and the residual radioactivity is measured in a TopCount instrument (Perkin-Elmer). The IC50 values are calculated using the RS1 software.
The radioactivity (decompositions per minute) of the blank value (no use of test substance in the presence of 100 nM staurosporine) is subtracted from all other radioactivity values. The controls (kinase activity without test substance) are set equal to 100 percent and all other radioactivity values (after subtracting the blank value) are expressed set in relation thereto (for example in % of the control).
IC50 values (concentration of the test substance at 50% inhibition) are determined with the aid of statistics programmes, such as, for example, RS1.

[2] = system: TGF-beta-mediated growth inhibition, lung epithelial cell line Mv1Lu; assay: Cellular TGF-beta assay: elimination of TGF-beta-mediated growth inhibition; format: cell-based
Method: In-Vitro (Enzyme) Assay for Determination of the Efficacy of the Inhibitors of the Inhibition of TGF-Beta-Mediated Effects
As an example, the ability of the inhibitors to eliminate TGF-beta-mediated growth inhibition is tested.
Cells of the lung epithelial cell line Mv1Lu are sown in a defined cell density in a 96-well microtitre plate and cultivated overnight under standard conditions. Next day, the medium is replaced by medium which comprises 0.5% of FCS and 1 ng/ml of TGF-beta, and the test substances are added in defined concentrations, generally in the form of dilution series with 5-fold steps. The concentration of the solvent DMSO is constant at 0.5%. After a further two days, Crystal Violet staining of the cells is carried out. After extraction of the Crystal Violet from the fixed cells, the absorption is measured spectrophotometrically at 550 nm. It can be used as a quantitative measure of the adherent cells present and thus of the cell proliferation during the culture.

Human ALK1 = biological target: T2, Human ALK1 (Homo sapiens, UniProt P37023); assay: Test for the inhibition of ALK-1; format: biochemical; details: Human ALK1, casein substrate, ATP 10 μM
T2 construct: purchased ALK1
Method: Test for the Inhibition of ALK-1
(Serine/threonine-protein kinase receptor R3, activin receptor-like kinase 1, ALK-1, TGF-B superfamily receptor type I, TSR-I, SKR3, ACVRLK1)
Substrate: Casein, 20 mg/ml

T2 sequence (P37023 22-503): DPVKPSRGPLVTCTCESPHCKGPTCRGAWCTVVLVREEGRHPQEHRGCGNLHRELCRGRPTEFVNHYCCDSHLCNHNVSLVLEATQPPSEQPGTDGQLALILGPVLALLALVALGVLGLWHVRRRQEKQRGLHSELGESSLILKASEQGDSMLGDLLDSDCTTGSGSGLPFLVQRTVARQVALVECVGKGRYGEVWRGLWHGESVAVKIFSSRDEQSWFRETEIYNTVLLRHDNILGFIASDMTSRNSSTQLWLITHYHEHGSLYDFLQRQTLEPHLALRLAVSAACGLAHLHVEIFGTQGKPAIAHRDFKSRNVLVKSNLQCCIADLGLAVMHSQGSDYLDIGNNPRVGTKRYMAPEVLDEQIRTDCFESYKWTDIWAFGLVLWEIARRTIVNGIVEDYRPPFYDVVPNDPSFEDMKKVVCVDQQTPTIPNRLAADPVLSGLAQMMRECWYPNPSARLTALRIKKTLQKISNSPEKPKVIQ

| Structure (SMILES) | IC50 [1] [nM] | IC50 [2] [nM] | IC50 (Human ALK1) [nM] |
| --- | --- | --- | --- |
| Cc1[nH]c2ncccc2c1-c1cnc(N)c2cnccc12 [4-(2-methyl-1H-pyrrolo[2,3-b]pyridin-3-yl)-2,7-naphthyridin-1-ylamine] | 4.6 | 28 | 79 |
| Nc1ncc(-c2c[nH]c3ncccc23)c2ccncc12 [Compound A24] | 13 | 72 |  |
| Cc1[nH]c2ncccc2c1-c1nccc2c(N)nccc12 [Compound A13] | 16 | 160 | 200 |
| Nc1nccc2c(-c3c[nH]c4ncccc34)nccc12 [Compound A32] | 43 | 770 |  |

From patent publication US9382244B2, “7-azaindole-2,7-naphthyridine derivative for the treatment of tumours” (Merck Patent GmbH, priority 2012, dated 2016)
